In series [1] the test system is S. pyogenes M1. It is filed as in vivo, mouse.
Series [2] concerns S. pyogenes M1. It is filed as in vivo, mouse. The source holds these as a separate data set.
The next series relates to skin punch biopsies. As to the kind of experiment: CGRP release assay from skin explants. Format: in vivo, mouse. The following applies: RTX-treated vs vehicle; 7 h. The protocol: CGRP release assay from skin explants. Skin punch biopsies (12 mm) were collected from the uninfected or infected flank skin samples of euthanized mice, and rapidly transferred to 24-well plates containing 1 mL of DMEM. Explants were incubated at 32° C. with gentle shaking (150 rpm) for 30 min.

Series [3] deals with TRPV1-positive nociceptors. Description: Ablation of TRPV1+ nociceptors, quantification of DRG/vagal ganglia neurons. To be noted: mouse, in vivo.
For the next series, the system named is S. aureus USA300. Description: S. aureus (MRSA) lung infection / lethal pneumonia. Format: in vivo, mouse.
Series [4] concerns Streptococcus pneumoniae strain WU-2. As to the kind of experiment: S. pneumoniae lung infection. It is filed as in vivo, mouse. The following applies: RTX vs vehicle; P=0.13.
Another series deals with Klebsiella pneumoniae. Description: K. pneumoniae lung infection. Format: in vivo, mouse. The following applies: RTX vs vehicle.
In series [5] the test system is Pseudomonas aeruginosa strain PA01V. Description: P. aeruginosa lung infection. It is filed as in vivo, mouse. To be noted: RTX vs vehicle.
Series [6] can be described thus: Heat sensitivity (hot plate and tail-flick assays). Format: in vivo, mouse. To be noted: RTX vs vehicle. The protocol: Behavior tests. For behavioral assays, observers were blinded to treatment group and genotype. To measure heat sensitivity, mice were placed on a hot plate set at 52° C. (IITC Life Science). Latency to hindpaw lifting/licking/flinching was recorded, and stopped at a maximum of 60 seconds. For tail-flick assay, mice were kept vertically in a relaxed fashion with their tail immersed in a temperature-controlled water bath maintained at 52° C. The latency to a tail flick was recorded, with maximum of 60 seconds.
On the technique in general: In hot-plate and tail-flick tests a longer latency is read as antinociception.

The next series concerns neutrophils. Description: Pulmonary intravital microscopy of neutrophils. Format: in vivo, mouse. The following applies: RTX. The protocol: Pulmonary intravital microscopy. […]. To visualize neutrophils and endothelium, 3.5 μg Alexa Fluor 594 conjugated anti-Ly6G antibody (clone 1A8, BioLegend) and 5 μg Alexa Fluor 647 conjugated anti-CD31 antibody (clone MEC13.3, BioLegend) were injected intravenously. Mice were placed on a heating pad maintained at 37° C. and connected to mechanical ventilation (Harvard Apparatus) after a tracheostomy is performed. Mice were kept in a right lateral decubitus position and their left lung was exposed after a thoracotomy and rib resection. A portion of the lung was immobilized via a gentle vacuum chamber with a glass slide fitted on top. A resonant-scanner confocal microscope (Leica SP8) equipped with a white light laser and three HyD spectral detectors and a 25×/0.9 water objective lens were used for intravital microscopy. Images were acquired every 10 s for a total of 10 min, three to five fields of view were observed. All videos and images were processed and analyzed using Leica software and Volocity software. For neutrophil behavior analysis, tethering was defined as rapid movement with blood flow and stop for less than 30 s. Adhesion was defined as neutrophils that remained stationary for 30 s or longer. Crawling was defined as polarized cells that maintained continuous contact with the endothelium while changing physical location for at least 30 s. Random neutrophils were tracked manually in 10-min videos by using Volocity software.

Series [7] is classed as in vivo, mouse. The following applies: RTX-treated vs vehicle; steady state. The protocol: Vital sign measurements. Heart rate, oxygen saturation and perfusion were measured under isoflurane anesthesia by Pulse Oximetry using the Kent Scientific PhysioSuite (Kent Scientific Corporation). For accuracy, measurements were performed three independent times on different days for the same mice, and values represent the average of three measurements. Pulse Oximetry could not be used on MRSA infected mice because they could not survive isoflurane anesthesia, and thus the measurements were only performed at steady state. Respiratory rates were determined by manually recording number of breaths per minute and averaged over three measurements. Core body temperature was measured using a rectal thermal probe (Bioseb).

Series [8] deals with S. pyogenes M1. It is filed as cell-based, mouse.
The subject of series [9] is S. pyogenes M1. Format: cell-based, Streptococcus pyogenes. To be noted: 1 h.

“Also recorded” adds a separate entry of the source. Read-outs that look alike come from different tables or passages of the source.

Consider `C=C(C)[C@]12C[C@@H](C)[C@@]34O[C@](Cc5ccccc5)(O[C@@H]1[C@@H]3C=C(COC(=O)Cc1ccc(O)c(OC)c1)C[C@]1(O)C(=O)C(C)=C[C@@H]41)O2` [RTX, Resiniferatoxin], for which the dermonecrosis entry in the series on S. pyogenes M1 [1] (RTX 30, 70, 100 μg/kg s.c., infection 4 weeks later) is given as “significantly less dermonecrosis”. Further, in the series with S. pyogenes M1 [1] (RTX-treated vs vehicle), the “S. pyogenes in lesions, quantitative cultures” value is reported as “log-fold reductions of S. pyogenes”; the body weight regain entry was “regained body weight faster”; the skin abscess size entry was “resolved faster”. Further, the “monocytes, other myeloid cells, CD11b-CD45+ leukocytes (FACS)” value in the series with S. pyogenes M1 [1] (RTX-treated vs vehicle, 1 day) is on record as “not detected”. Moreover, the skin histopathology result in the series on S. pyogenes M1 [1] (RTX-treated, day 3) was “containment of the bacterial infection within a circumscribed abscess containing polymorphonuclear leukocytes”. Besides, in the series with S. pyogenes M1 [1] (RTX-treated, day 9), the “S. pyogenes cultured from spleens” value is “did not yield detectable bacteria”. For the same molecule, in the series on S. pyogenes M1 [2] (RTX-treated), the heat hyperalgesia entry was “abrogated”, the mechanical hyperalgesia result is “abrogated” and the spontaneous pain behaviors entry is listed as “abrogated”. For the same molecule, the “CGRP release in infected tissues” value in the series with skin punch biopsies is given as “lower CGRP release in infected tissues”. Besides, the “TRPV1+ and CGRP+ neurons in DRG (and vagal/nodose ganglia)” value in [3] was “significant loss of CGRP+ nociceptive neurons; also recorded: led to loss of TRPV1+ and CGRP+ neurons; also recorded: loss of TRPV1+ and CGRP+ neurons in DRG and VG”. For the same molecule, the “mice succumbed to / died from infection” value in the series on S. aureus USA300 (RTX-treated mice given GR1 or control IgG) is 0%. In the series on S. aureus USA300 (RTX-treated vs vehicle, 12 h), the “lung bacterial burdens / clearance” value is reported as “significantly improved; also recorded: reduced lung bacterial burdens”. Further, the core body temperature result in the series on S. aureus USA300 (RTX-treated vs vehicle, lethal MRSA) is “improved maintenance of core-body temperature”. Besides, in the series on S. aureus USA300 (RTX-treated vs vehicle, lethal MRSA intra-tracheal), the survival result is recorded as “significantly improved survival; also recorded: the majority of RTX-treated mice survived”. In addition, in the series on S. aureus USA300 (RTX, 6 h), the “BALF total protein, TNF-α, IL-6 and CXCL-1 induction” value is given as “faster kinetics in the induction”. In addition, the “CD11b+Ly6G+ lung neutrophil recruitment” value in the series with S. aureus USA300 (RTX, 6 h and 12 h post-infection) is “striking increase”. In addition, the “gram-positive bacterial colonies in lung (Brown and Brenn)” value in the series on S. aureus USA300 (RTX, 12 h and 24 h) is given as “few bacterial colonies”. Besides, in the series on S. aureus USA300 (RTX, 12 h and 24 h post-infection), the “lung cellular immune influx (H&E)” value was “increased cellular immune influx”. For the same molecule, in the series on S. aureus USA300 (RTX, 12 h post-infection), the “BALF TNF-α, IL-6 and CXCL-1 levels” value is recorded as “markedly reduced”; the “CGRP levels in BALF” value was “significantly reduced”. Besides, the “bacterial load recovery, sub-lethal dose” value in the series with S. aureus USA300 (RTX, S. aureus 2-4×10^7 CFU) was “enhanced protection”. Further, in series [4], the survival entry was “modest but non-significant protective effect”. Moreover, the survival entry in the series on Klebsiella pneumoniae was “did not impact death”. In series [5], the survival result is on record as “did not impact death”. The “latency to noxious heat” value in series [6] was “increased latency to noxious heat”. In addition, in the series with neutrophils, the neutrophil crawling distances entry is listed as “significantly increased crawling distances” and the neutrophil vascular crawling entry is “a significant proportion of neutrophils demonstrated vascular crawling”. In addition, the “neutrophils recruited to pulmonary capillaries” value in the series with neutrophils (4 h post-infection GFP-S. aureus) is “significantly more neutrophils”. For the same molecule, the “oxygen saturation, heart rate, perfusion, respiratory rates” value in [7] is recorded as “did not differ”.

Regarding `NCCCC[C@H](NC(=O)[C@@H](Cc1cc(Br)c(O)c(Br)c1)NC(=O)N1CCC(N2Cc3ccccc3NC2=O)CC1)C(=O)N1CCN(c2ccncc2)CC1` [BIBN4096], the abscess formation entry in the series on S. pyogenes M1 [1] (mouse, in vivo, 30 mg/kg) is recorded as “significantly decreases abscess formation; also recorded: reduced abscesses”. In addition, the dermonecrotic lesion size result with S. pyogenes M1 [1] (mouse, in vivo, ip, 30 mg/kg) is “significantly smaller lesion formation; also recorded: smaller dermonecrotic lesions”. Moreover, in the series with S. pyogenes M1 [1] (treated 2 h after infection, 1 day after injection), the “neutrophil (CD11b+Ly6G+) recruitment to infected area” value is recorded as “increased the recruitment of neutrophils”. For the same molecule, in the series with S. pyogenes M1 [1] (treated 2 h after infection, 9 days after injection of bacteria), the “bacterial load recovery, flank skin and spleen” value was “decreases flank skin and spleen bacterial burdens; also recorded: increased bacterial clearance in the skin”. Further, the “neutrophil killing of S. pyogenes suppressed by DRG neurons” value with S. pyogenes M1 [8] was “enhances neutrophil killing of bacteria; also recorded: prevented the suppressive effects”. Further, the “direct effects on S. pyogenes growth or viability” value with S. pyogenes M1 [9] is listed as “did not have direct effects”.

As to “CGRP8-37 (VTHRLAGLLSRSGGVVKNNFVPTNVGSKAF; Calcitonin gene-related peptide 1; UniProt P06881 90-119, looked up, fragment)”, the “neutrophil killing of S. pyogenes suppressed by DRG neurons” value in the series with S. pyogenes M1 [8] is “enhances neutrophil killing of bacteria; also recorded: prevented the suppressive effects”. For the same molecule, the “direct effects on S. pyogenes growth or viability” value in the series on S. pyogenes M1 [9] is on record as “did not have direct effects”. Further, the survival entry was “improved survival” in the series on S. aureus USA300 (CGRP8-37 800 ng i.p. at -24, -2, 12, 24, 36, 48 h); “significantly improved survival” with S. aureus USA300 (CGRP8-37 7.5 μg i.p. at 4, 16, 24 h after infection); “significantly improved survival” in the series on S. aureus USA300 (CGRP8-37 i.p. 12 hours prior and 12 hours after infection, 10^7 CFU). Besides, the “core body temperature maintenance” value in the series on S. aureus USA300 (CGRP8-37 800 ng i.p. before and after infection) is on record as “improved”. The core body temperature entry in the series on S. aureus USA300 (CGRP8-37 7.5 μg i.p. after infection) is reported as “significantly improved”. In addition, in the series on S. aureus USA300 (CGRP8-37 i.p. 12 hours prior and 12 hours after infection), the core-body temperature entry is “maintenance of core-body temperature”.

Regarding `CC(C)Cc1ccc(C(C)C(=O)O)cc1` (centres unmarked) [Ibuprofen], in the series with S. pyogenes M1 [2] (ibuprofen 50 mg/kg), the heat hyperalgesia result is “had no effect” and the mechanical hyperalgesia entry was “had no effect”.

The values above are taken from US11400136B2, “Methods and compositions for treating a microbial infection” (priority 2017, dated 2022).
